Measured values: patent US8632815B2 (Laila Pharmaceutical Pvt., Ltd., priority 2008, dated 2014)
Blank lines part the entries; values can stand above or below the compound they belong to.

Assays:
[1] = test system: selenite-induced cataract in Wistar rat pups; assay: In vivo anti-cataract efficacy, selenite-induced cataract
Description: Animals were grouped into Group I (control), Group II (sodium selenite) and Group III (treatment).
Two hours later Sodium Selenite (25 μM/kg·bw of 5 ml/kg·bw) was injected subcutaneously to both group II and III animals, thereafter 5 μl of LP002-09 was instilled topically to the eyes of group III animals only.
All animals were observed individually through out the observation period for any clinical signs and mortality. On the examination day i.e. when the pups first opened their eyes, the development of cataract was observed by the presence or absence of opacity by dilating the pupil with 0.8% tropicamide.
The cataract was scored on a scale of 0 to 4 according to procedure described by Muranov et al., (2004). Grade 0 was a normal clear lens, Grade 1 was a subcapsular opacity; Grade 2 was nuclear cataract, Grade 3 was strong nuclear cataract; Grade 4 was dense opacity involving entire lens and the results have been presented in below table 1

[2] = Particle size distribution, Malvern particle size analyzer; format: physicochemical; settings: laser diffraction
Description: The study was conducted using Malvern particle size analyzer. The map of scattering intensity versus angle is the primary source of information used to calculate the particle size. The scattering of particles is accurately predicted by the Mie scattering model allowing accurate sizing across the widest possible dynamic range. During the laser diffraction measurement, particles are passed through a focused laser beam. These particles scatter light at an angle that is inversely proportional to their size. The angular intensity of the scattered light is then measured by a series of photosensitive detectors. The advantage of this study is that there is no sample preparation involved.
This is a clear indication that the process of nanoemulsification followed has effectively transformed the large sized particles to nanosized coated curcuminoid particles. Additional peaks can be observed which is contributed by the high molecular weight excipients used to prepare the formulation.

[3] = of 20 eyes, rat pups, sodium selenite s.c.

SMILES: O=[Se](O)O [Sodium Selenite]
Total Percentage of cataract ([1]; 20 eyes, rat pups): 100%
Grade (Mean ± S.D.) ([1]; cataract scale 0 to 4, LP002-09 P < 0.0001 vs. Sodium Selenite treated): 3.6 ± 0.68
Dense opacity involving entire lens, Score 4 (number of eyes) [1, 3]: 14
No Opacity, Score 0 (number of eyes) [1, 3]: 0
Nuclear cataract, Score 2 (number of eyes) [1, 3]: 2
Strong Nuclear cataract, Score 3 (number of eyes) [1, 3]: 4
Subcapsular opacity, Score 1 (number of eyes) [1, 3]: 0
eyes with dense opacity type cataract ([1]; percent of eyes): 70%
eyes with nuclear cataract ([1]; percent of eyes): 10%
eyes with strong nuclear cataract ([1]; percent of eyes): 20%

particle size [2]: 373 nm
particle size ([2]; listed as curcumin): 374 nm
SMILES: COc1cc(/C=C/C(=O)CC(=O)/C=C/c2ccc(O)c(OC)c2)ccc1O [unformulated curcumin 98%, Curcumin]
